# Assay results published in patent US6077826A, “Synthetic macromolecular channel assembly for transport of chloride ions through epithelium useful in treating cystic fibrosis” (Kansas State University Research Foundation, priority 1998, dated 2000).
# Columns and labels:
# tetrameric channel = molecular target: T1, tetrameric channel (Homo sapiens, UniProt P23415); conditions: lipid bilayers; cited from earlier work
# T1 construct: 9-amino acid carrier template (tethers four peptide copies)
# [1] = tested on: C-K4 -M2GlyR-generated (SEQ ID NO: 7) ISC across MDCK monolayers; assay: Effect of Cl- transport inhibitors on C-K4-M2GlyR-generated Isc across MDCK monolayers; type: cell-based, canine; conditions: for fraction of stimulated current remaining: four monolayers
# Description: Electrical measurements. MDCK cells (2.5×10^5) were plated on permeable supports (Snapwell, 12 mm dia.; Costar Corp), coated with a mixture of types I and III collagen (ICN, Costa Mesa, Ca.). The Snapwell supports were placed in a 6 well culture plate containing DME/F12+P/S and 1% FCS (0.4 mL in the upper part and 5 mL in the lower). MDCK monolayers were allowed to reach confluency and after 5 days of growth were mounted in Using chambers designed for cell culture (Costar). The position of the monolayer and the supporting membrane separated the apical and the basolateral compartments. Both sides of the monolayers were bathed in 5 mL of a Ringer's solution containing (in mM); 147 Na^+, 119 Cl^-, 20 HCO3^-, 6 alanine, 5 K^+, 5 acetate, 5 glucose, 4 lactate, 2.5 HPO4^- 1.2 Mg^+2, 1.2 SO4^-2 1 citrate, 0.5 butyric acid and 14 raffinose. The media in each half-chamber was circulated by a bubble-lift method with a gas mixture of 95% O2 /5% CO2 and maintained at 37° C. In experiments in which we removed chloride from the Ringer's solution, the molar equivalent of cyclamate was used.
# The transepithelial voltage was measured using glass capillary tubes containing a plug of 5% agar in 3 M KCl and situated near each side of the cell layer. The glass tube was filled above the agar plug with 3 M KCl and Ag/AgCl electrodes were inserted into the KCI. Current electrodes consisted of a coil of platinum wire (30 gauge) located at the ends of each half-chamber. Transepithelial potential (Vtc); the short-circuitcurrent (Isc), the current necessary to clamp the voltage to zero; and the transepithelial resistance (Ftc) were measured at five minute intervals with a dual epithelial voltage clamp apparatus (Warner Instrument, Hamden, Conn.) as previously described in detail (Mangoo-Karimet al.; 1995). The average of the last two measurements in each period were used for comparison between pairs of monolayers and among each group.
# In electrophysiological studies, niflumic acid, 5-nitro-2-(3-phenylpropylamino)-benzoate (NPPB, provided by SmithKline Beecham), diphenylamine-2-carboxylate (DPC, Fluka Chemika), and glibenclamide were dissolved in 100% ethanol. The maximal final concentration of ethanol, 0.5%, was without effect on Isc.
# Effect of Cl^- channel blockers. We tested a variety of Cl^- channel blockers on the Isc generated by apical application of C-K4 -M2GlyR (SEQ ID NO: 7). […]. […] A negative change indicates a reduction in the current. The sensitivity sequence of the peptide-induced current to the Cl^- channel blockers was niflumic acid≥NPPB>DPC>glibenclamide>>>DIDS.
# M2GlyR-stimulated Isc = assay: Effect of Cl- transport inhibitors on M2GlyR-stimulated Isc in MDCK monolayers; type: cell-based, canine
# [2] = tested on: forskolin-stimulated current; conditions: apical DPC, previously published dose response; cited from earlier work
# MDCK monolayers [3] = assay: Intracellular cAMP by radioimmunoassay in MDCK monolayers; type: cell-based, canine; conditions: 10 μM forskolin, 2 hrs
# Description: Cyclic adenosine monophosphate measurements. Confluent monolayers of MDCK cells were incubated in defined media (1.7 mL apical and 2.5 mL basolateral) or defined media containing either 10 μM basolateral forskolin or 500 μM apical C-K4 -[…] (SEQ ID NO: 7) for two hours. Monolayers were rinsed in Ca^+2 -, Mg^+2 -tree phosphate buffered saline (PBS), then treated with 5% trichloroacetic acid (TCA) to deactivate endogenous phosphodiesterases. […] Intracellular cAMP remained in the aqueous phase. After the water and ether phases separated, the water phase was collected. Relative levels of intracellular cAMP were determined by radioimmunoassay (Biomedical Technology Inc, Stoughton, Mass.) using methods previously described (Krishna and Terranova; 1987).
# MDCK monolayers [4] = assay: Fluid secretion / fluid transport by MDCK monolayers (24 hr collection); conditions: 500 μM apical peptide or 10 μM basolateral forskolin, n = 12 (Table 6)
# [5] = 100 μM basolateral bumetanide after 100 μM apical SEQ ID NO: 7, n = 8
# [6] = 100 μM basolateral bumetanide after 100 μM apical SEQ ID NO: 7, n = 8, listed as bumetanide
# [7] = 100 μM inhibitor apical for 20 minutes after 100 μM C-K4-M2GlyR, negative = inhibition
# T1 sequence (P23415 278-300 limits assumed): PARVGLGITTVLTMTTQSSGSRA
smiles,measurement,setting,value
"O=C(O)c1c2ccccc2cc2ccccc12 [9-AC, 9-anthracene carboxylic acid]",block of the tetrameric channel,tetrameric channel,blocked
"CCCCNc1cc(C(=O)O)cc(S(N)(=O)=O)c1Oc1ccccc1 [Bumetanide, bumetanide]",ISC after bumetanide,[1]; [5],1.4 ± 0.4 μA/cm^2
same,Rtc after bumetanide,[1]; [5],2145 ± 474 Ohms.cm^2
same,Vtc after bumetanide,[1]; [5],-2.8±0.6 mV
same,ISC after bumetanide,[1]; [6],1.4 μA/cm^2
same,Rtc after bumetanide,[1]; [6],not significant
same,inhibition of the peptide-generated Isc,"[1]; 100 μM basolateral bumetanide, n = 8",97%
same,effect on the peptide-generated current,"[1]; 100 μM basolateral bumetanide, typical experiment FIG. 6",blocked the peptide-generated current
same,Isc after subsequent addition of bumetanide,"M2GlyR-stimulated Isc; 100 μM basolateral bumetanide after M2GlyR, five experiments",1.3±0.3 μA/cm^2
"O=C(O)c1ccccc1Nc1ccccc1 [DPC, diphenylamine-2-carboxylate]",fraction of stimulated current remaining,[1]; 100 μM apical DPC,68±2%
same,100 μM inhibitor (percent change) in ISC,[1]; [7],-38.0 ± 0.8%
same,fraction of stimulated current remaining,[1]; 1 mM apical DPC,41±6%
same,fraction of stimulated current remaining,[1]; 3 mM apical DPC,26±5%
same,DPC concentration sufficient to return Isc to the control level,"M2GlyR-stimulated Isc; apical DPC after M2GlyR, four experiments",< 1 mM
same,dose of DPC required to significantly inhibit the forskolin-stimulated current,[2],3 mM
"COc1ccc(Cl)cc1C(=O)NCCc1ccc(S(=O)(=O)NC(=O)NC2CCCCC2)cc1 [Glibenclamide, glibenclamide]",percent change in Isc at 100 µM,"[1]; Canis lupus familiaris, MDCK, 20 min, 100 μM inhibitor apical for 20 minutes after 100 μM C-K4-M2GlyR, negative = inhibition",-18 ± 3.1%
"O=C(O)c1cc([N+](=O)[O-])ccc1NCCCc1ccccc1 [NPPB, 5-nitro-2-(3-phenylpropylamino)-benzoate]",100 μM inhibitor (percent change) in ISC,[1]; [7],-55.2 ± 4.5%
"O=C(O)c1cccnc1Nc1cccc(C(F)(F)F)c1 [Niflumic acid, niflumic acid]",inhibition at 100 µM,"[1]; Canis lupus familiaris, MDCK, 20 min, heading: 100 inhibitor in ISC, 100 μM inhibitor apical for 20 minutes after 100 μM C-K4-M2GlyR, negative = inhibition, read-out: 100 μM inhibitor (percent change) in ISC",57.1 ± 3.8%
same,block of the tetrameric channel,tetrameric channel,blocked
Cc1cccc(C)c1NC(=O)C[N+](C)(C)C [QX-222],block of the tetrameric channel,tetrameric channel,not blocked
O=C1C[C@@H]2OCC=C3CN4CC[C@]56c7ccccc7N1[C@H]5[C@H]2[C@H]3C[C@H]46 [Strychnine],block of the tetrameric channel,tetrameric channel,does not block
C=C[C@@]1(C)CC(=O)[C@]2(O)[C@@]3(C)[C@@H](O)CCC(C)(C)[C@@H]3[C@H](O)[C@H](OC(C)=O)[C@@]2(C)O1 [forskolin],increase of cAMP levels above the control,MDCK monolayers [3],266%
same,fluid transport by MDCK monolayers,MDCK monolayers [4],0.47 ± 0.05 μL/hr/cm^2
